Measurements taken from the supplement of paper PMC10307832.

Key:
Experiment in all cases: relative viability (nuclei count vs DMSO), 5 days (fraction); higher = more cells survive
[1] = compound: COC1=CC=C(C=C1)CN2C=CC3=C2C=C(C=C3)C(=O)NO + CC1(C)CCC(c2ccc(Cl)cc2)=C(CN2CCN(c3ccc(C(=O)NS(=O)(=O)c4ccc(N[C@H](CCN5CCOCC5)CSc5ccccc5)c(S(=O)(=O)C(F)(F)F)c4)cc3)CC2)C1 [Navitoclax] (partner 0.5 µM)
Procedure, shortened: (§1)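 Relative viability is defined as nuclei in treated wells over nuclei in vehicle wells. Duplicate plates were run and medians reported. Lung cancer cell lines in 1536-well plates were dosed by pin tool one day after seeding, with one drug or with a fixed anchor-drug dose plus five library-drug doses (not always all listed) in √10 steps, and nuclei were counted after 5 days.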

[2] = compound: COC1=CC=C(C=C1)CN2C=CC3=C2C=C(C=C3)C(=O)NO + CC(=O)Nc1cccc(-n2c(=O)n(C3CC3)c(=O)c3c(Nc4ccc(I)cc4F)n(C)c(=O)c(C)c32)c1 [Trametinib] (partner 0.02 µM)
Procedure, shortened: as §1

[3] = compound: COC1=CC=C(C=C1)CN2C=CC3=C2C=C(C=C3)C(=O)NO + C[C@]1(O)C[C@@H](c2nc(-c3ccc4ccc(-c5ccccc5)nc4c3)c3c(N)nccn32)C1 [Linsitinib] (partner 1 µM)
Procedure, shortened: as §1

[4] = compound: COC1=CC=C(C=C1)CN2C=CC3=C2C=C(C=C3)C(=O)NO + CC(=O)c1c(C)c2cnc(Nc3ccc(N4CCNCC4)cn3)nc2n(C2CCCC2)c1=O [Palbociclib] (partner 0.5 µM)
Procedure, shortened: as §1

Cell Line	relative viability ([1]; first compound 0.08 µM)	relative viability ([1]; first compound 0.253 µM)	relative viability ([1]; first compound 0.8 µM)	relative viability ([1]; first compound 2.53 µM)	relative viability ([1]; first compound 8 µM)	relative viability ([2]; first compound 0.08 µM)	relative viability ([2]; first compound 0.253 µM)	relative viability ([2]; first compound 0.8 µM)	relative viability ([2]; first compound 2.53 µM)	relative viability ([2]; first compound 8 µM)	relative viability ([3]; first compound 0.08 µM)	relative viability ([3]; first compound 0.253 µM)	relative viability ([3]; first compound 0.8 µM)	relative viability ([3]; first compound 2.53 µM)	relative viability ([3]; first compound 8 µM)	relative viability ([4]; first compound 0.08 µM)	relative viability ([4]; first compound 0.253 µM)	relative viability ([4]; first compound 0.8 µM)	relative viability ([4]; first compound 2.53 µM)	relative viability ([4]; first compound 8 µM)
201T	1.19	1.24	1.22	1.23	1.19	0.769	0.733	0.773	0.743	0.701	1.04	1.01	1.13	1.06	1.03	0.338	0.368	0.371	0.358	0.365
A549	1.22	1.26	1.25	1.15	1.07							0.678	0.595	0.697	0.558					
A-427		1	1.02	1.04	0.806	0.346		0.813	0.781	0.675		1.08	1.11	1.16	1.1	0.291		0.538	0.494	0.501
ABC-1												0.924	0.789	0.732	0.885		0.768	0.713	0.77	0.615
BEN	0.0556	0.0746	0.0683	0.156	0.0729	0.936	1.03	0.942	0.889	0.961	0.87	0.875	0.904	0.869	0.907	0.468	0.466	0.487	0.52	0.489
CAL-12T	0.964	1.29	1.25	1.24	1.23	0.387	0.347	0.33	0.335	0.301	0.695	0.917	0.756	0.76	0.786	0.424	0.517	0.585	0.325	0.566
COR-L23	0.77	0.945	1.04	1.11	1.01	0.5	0.617	0.627	0.615	0.522	0.558	1.09	0.817	0.872	0.836	0.23	0.323	0.316	0.29	0.26
COR-L 105		1.15	0.844	0.851	0.551	0.348	0.469	0.443	0.471	0.385		0.945	0.763	0.983	0.765	0.33	0.435	0.449	0.416	0.397
Calu-6	0.809	0.84	0.805	0.828	0.698							0.961	0.949	0.906	0.902					
ChaGo-K-1		0.932	1.13	0.911	0.887		0.924	0.887	0.861	0.803							0.914	0.928	0.904	0.874
